This note sets out measurements from US20250296938A1, “Compounds that Interact with the Ras Superfamily for the Treatment of Cancers, Inflammatory Diseases, Rasopathies, and Fibrotic Disease” (SHY Therapeutics, LLC, priority 2018, published 2025).

In one test the test system is IL-6. In words: Mouse IL6 quantification assay, LPS-stimulated RAW 264.7 macrophages. It is filed as cell-based. The note with it: RAW264.7, 30 μM, LPS-stimulated RAW 264.7 macrophages. The method, then: (§1) Cell lines: Abelson murine leukemia virus transformed macrophage cell line RAW 264.7 was purchased from ATCC and grown in complete DMEM-High Glucose medium supplemented with penicillin (100 U/mL), streptomycin (100 μg/mL), and 10% heat-inactivated FBS at 37° C. in a humidified incubator with 5% CO2.
(§2) Method: Cells were plated at 25000-40000 cells/well density in a 96-well plate. After a 3-hour incubation, macrophages were starved with DMEM plus 0.5% FBS overnight. The next day the small molecules to be tested were added to the cells in the final concentration of 30 μM (with 0.3% DMSO) 3 hours prior to LPS stimulation (100 ng/ml). After LPS stimulation cells were incubated at 37° C. for 16 h. Alternatively, compounds were also tested at 10 μM and LPS (100 ng/ml) was added concurrently and incubated 5 hours at 37° C. At the end of the incubation periods, culture medium was collected and production of LPS-induced TNF-α and IL-6 cytokine was measured using ELISA detection kits.
(§3) Sandwich ELISA: The ELISA Immunoassays Quantikine Mouse TNF-alpha (catalog number MTA00B) and IL6 (catalog number M6000B) were purchased from R&D Systems Inc., Minneapolis, MN. These 4.5 hours solid phase ELISAs were used to measure mouse TNF-α or IL-6 levels in macrophages culture supernatants. Assays were executed according to the manufacturer specifications.
Turning to `COCC1CN(c2nc(-c3nccn3C)nc3sc(-c4cccc(OC)c4F)c(-c4ccc(OC)cc4)c23)C1` [drawing 718], the inhibition at 30 µM lay in the range of 76 to 100%.
Still for that read-out and setting: the figure for `COc1cccc(-c2sc3nc(-c4nccn4C)nc(N4CCC(OC)C4)c3c2-c2ccccc2)c1F` (centres unmarked) [drawing 719] is 76 to 100%; for `COc1c(O)nc(-c2ccccn2)nc1Oc1cnn(C)c1` [drawing 720] it is 26 to 50%.
Same read-out and setting: the figure for `COc1c(O)nc(-c2ccccn2)nc1Oc1ccc2ncccc2c1` [drawing 721] is 76 to 100%; for `COc1c(O)nc(-c2ccccn2)nc1Oc1cccnc1` [drawing 722] it is 51 to 75%; for `COc1cccc(Oc2nc(-c3ccccn3)nc(O)c2OC)c1` [drawing 723] it is 76 to 100%.
Same read-out and setting: for `COc1ccc(Oc2nc(-c3ccccn3)nc(O)c2OC)cc1` [drawing 724] the value was 76 to 100%; for `COCCc1ccc(Oc2nc(-c3ccccn3)nc(O)c2OC)cc1` [drawing 725], 76 to 100%.
As to `COc1c(O)nc(-c2ccccn2)nc1Oc1ccccc1` [drawing 726], the inhibition at 30 µM was in the range of 76 to 100%.
On the same count and under the same terms, for `O=C(c1nc(-c2ccccn2)nc(O)c1O)N1CCOCC1` [drawing 728] the value was 0%; for `CN(Cc1ccccc1)C(=O)c1nc(-c2ccccn2)nc(O)c1O` [drawing 729], 1 to 25%.
The same measure, in the same setting: for `O=C(NCc1ccccc1)c1nc(-c2ccccn2)nc(O)c1O` [drawing 730] the value was 76 to 100%.
`O=C(c1nc(-c2ccccn2)nc(O)c1O)N1CCCC1` [drawing 731] gave an inhibition at 30 µM of 0%.
Still for that read-out and setting: for `O=C(NC1CCCC1)c1nc(-c2ccccn2)nc(O)c1O` [drawing 732] the value was 76 to 100%; for `CC(C)CN(C)C(=O)c1nc(-c2ccccn2)nc(O)c1O` [drawing 733], 0%; for `CC(C)CNC(=O)c1nc(-c2ccccn2)nc(O)c1O` [drawing 734], 76 to 100%.
Still for that read-out and setting: for `COCCN(C)C(=O)c1nc(-c2ccccn2)nc(O)c1O` [drawing 735] the value was 0%.
`O=C(NC1CCC1)c1nc(-c2ccccn2)nc(O)c1O` [drawing 736] returned an inhibition at 30 µM of 76 to 100%.
The same measure, in the same setting: the figure for `CC(C)NC(=O)c1nc(-c2nccn2C)nc(O)c1O` [drawing 737] is 0%; for `CCN(CC)C(=O)c1nc(-c2nccn2C)nc(O)c1O` [drawing 738] it is 0%.
Same read-out and setting: for `Cn1ccnc1-c1nc(O)c(O)c(C(=O)N2CCCC2)n1` [drawing 739] the value was 0%.
The same measure, in the same setting: for `Cn1ccnc1-c1nc(O)c(O)c(C(=O)NC2CCCC2)n1` [drawing 740] the value was 0%; for `Cn1ccnc1-c1nc(O)c(O)c(C(=O)N2CCCCC2)n1` [drawing 741], 0%.
In turn, `Cn1ccnc1-c1nc(O)c(O)c(C(=O)NC2CCC2)n1` [drawing 742] had an inhibition at 30 µM of 0%.
`COC(=O)c1nc(-c2nccn2C)nc(O)c1O` [drawing 743] gave an inhibition at 30 µM of 0%.

A further test concerns TNF-α. Kind of test: Mouse TNF alpha quantification assay, LPS-stimulated RAW 264.7 macrophages. It is filed as cell-based. The note with it: RAW264.7, 30 μM, LPS-stimulated RAW 264.7 macrophages. The procedure: as §1, §2, §3
In turn, `COCC1CN(c2nc(-c3nccn3C)nc3sc(-c4cccc(OC)c4F)c(-c4ccc(OC)cc4)c23)C1` [drawing 718] had an inhibition at 30 µM of 76 to 100%.
Same read-out and setting: the figure for `COc1cccc(-c2sc3nc(-c4nccn4C)nc(N4CCC(OC)C4)c3c2-c2ccccc2)c1F` (centres unmarked) [drawing 719] is 76 to 100%.
Still for that read-out and setting: the figure for `COc1c(O)nc(-c2ccccn2)nc1Oc1cnn(C)c1` [drawing 720] is 0%.
The compound `COc1c(O)nc(-c2ccccn2)nc1Oc1ccc2ncccc2c1` [drawing 721] had an inhibition at 30 µM of 1 to 25%.
Still for that read-out and setting: the figure for `COc1c(O)nc(-c2ccccn2)nc1Oc1cccnc1` [drawing 722] is 0%.
On the same count and under the same terms, for `COc1cccc(Oc2nc(-c3ccccn3)nc(O)c2OC)c1` [drawing 723] the value was 26 to 50%.
Regarding `COc1ccc(Oc2nc(-c3ccccn3)nc(O)c2OC)cc1` [drawing 724], the inhibition at 30 µM fell in the range of 1 to 25%.
For `COCCc1ccc(Oc2nc(-c3ccccn3)nc(O)c2OC)cc1` [drawing 725], the inhibition at 30 µM was in the range of 1 to 25%.
The same measure, in the same setting: the figure for `COc1c(O)nc(-c2ccccn2)nc1Oc1ccccc1` [drawing 726] is 1 to 25%.
Same read-out and setting: the figure for `O=C(c1nc(-c2ccccn2)nc(O)c1O)N1CCOCC1` [drawing 728] is 1 to 25%; for `CN(Cc1ccccc1)C(=O)c1nc(-c2ccccn2)nc(O)c1O` [drawing 729] it is 0%.
As to `O=C(NCc1ccccc1)c1nc(-c2ccccn2)nc(O)c1O` [drawing 730], the inhibition at 30 µM is 76 to 100%.
On the same count and under the same terms, the figure for `O=C(c1nc(-c2ccccn2)nc(O)c1O)N1CCCC1` [drawing 731] is 1 to 25%; for `O=C(NC1CCCC1)c1nc(-c2ccccn2)nc(O)c1O` [drawing 732] it is 26 to 50%.
Same read-out and setting: for `CC(C)CN(C)C(=O)c1nc(-c2ccccn2)nc(O)c1O` [drawing 733] the value was 0%; for `CC(C)CNC(=O)c1nc(-c2ccccn2)nc(O)c1O` [drawing 734], 26 to 50%; for `COCCN(C)C(=O)c1nc(-c2ccccn2)nc(O)c1O` [drawing 735], 1 to 25%.
Compound `O=C(NC1CCC1)c1nc(-c2ccccn2)nc(O)c1O` [drawing 736] gave an inhibition at 30 µM of 1 to 25%.
The compound `CC(C)NC(=O)c1nc(-c2nccn2C)nc(O)c1O` [drawing 737] gave an inhibition at 30 µM of 1 to 25%.
Same read-out and setting: for `CCN(CC)C(=O)c1nc(-c2nccn2C)nc(O)c1O` [drawing 738] the value was 1 to 25%.
The compound `Cn1ccnc1-c1nc(O)c(O)c(C(=O)N2CCCC2)n1` [drawing 739] showed an inhibition at 30 µM of 1 to 25%.
For the compound `Cn1ccnc1-c1nc(O)c(O)c(C(=O)NC2CCCC2)n1` [drawing 740], the inhibition at 30 µM lay within 1 to 25%.
Still for that read-out and setting: for `Cn1ccnc1-c1nc(O)c(O)c(C(=O)N2CCCCC2)n1` [drawing 741] the value was 1 to 25%.
On to `Cn1ccnc1-c1nc(O)c(O)c(C(=O)NC2CCC2)n1` [drawing 742], for which the inhibition at 30 µM lay in the range of 1 to 25%.
The same measure, in the same setting: for `COC(=O)c1nc(-c2nccn2C)nc(O)c1O` [drawing 743] the value was 0%.
